Experimental data from US12507703B2, “Methods, devices and compositions for preserving human milk” (The Trustees of Princeton University, priority 2023, dated 2025).
“And” between values parts separate entries of the source, which are not always exact repeats. Identical values can stand only once.

Test system: lipase
Assay: Lipase/lipolysis assay (EnzChek Lipase Substrate, quenched BODIPY-fatty acid conjugate) on stored human milk; for Lipase (RFU): test concentration or dose not given here

Compound	Lipase (RFU)	also measured
C=C(C)[C@H]1C=C[C@@](C)(O)CC1 [cis-Isolimonenol]	930.1567 RFU	–
CC/C=C\CC1=C(C)CCC1=O [cis-Jasmone]	1015.76 RFU	–
O[C@H]1[C@H](O)[C@@H](O)[C@H](O)[C@@H](O)[C@H]1O [i-Inositol]	1026.636 RFU and 1128.491 RFU	–
COc1cccc(C=O)c1 [m-Anisaldehyde]	1038.646 RFU	–
Cc1cccc(C=O)c1 [m-Tolualdehyde]	859.0901 RFU	–
OC[C@@H](O)[C@@H](O)CO [meso-Erythritol]	838.849 RFU	–
Cc1ccc(OS(=O)(=O)[O-])cc1.[K+] [p-Cresyl sulfate (potassium)]	825.569 RFU	–
Cc1ccc(C=O)cc1 [p-Tolualdehyde]	1029.761 RFU	–
O=C(O)[C@@H]1C[C@@H](O)CN1 [trans-4-Hydroxy L-Proline]	608.0856 RFU	–
O=C(O)/C=C(\CC(=O)O)C(=O)O [trans-Aconitic acid]	946.0721 RFU	–
CCCCCC/C=C/CCCCCCCCCC(=O)O [trans-Vaccenic acid]	932.0426 RFU	–
C/C(=C\CNc1ncnc2c1ncn2[C@@H]1O[C@H](CO)[C@@H](O)[C@H]1O)CO [trans-Zeatinriboside]	823.084 RFU	–
CC1=CCC(=O)O1 [α-Angelica lactone]	1137.248 RFU	–
OC[C@H]1O[C@@H](O[C@H]2[C@H](O)[C@@H](O)[C@@H](O)O[C@@H]2CO)[C@H](O)[C@@H](O)[C@H]1O [α-Lactose]	963.7922 RFU	–
C[C@H]1CC[C@@H]2[C@@H](C)[C@H]3[C@H](C[C@H]4[C@@H]5CC=C6C[C@@H](O[C@@H]7O[C@H](CO)[C@H](O)[C@H](O[C@@H]8O[C@H](CO)[C@@H](O)[C@H](O)[C@H]8O)[C@H]7O[C@@H]7O[C@@H](C)[C@H](O)[C@@H](O)[C@H]7O)CC[C@]6(C)[C@H]5CC[C@]34C)N2C1 [α-Solanine]	840.4474 RFU	–
CC(C)[C@]12CC(=O)[C@H](C)[C@H]1C2 [α-Thujone]	659.4321 RFU	–
N#CCCN [β-Aminopropionitrile]	985.2024 RFU	–
CC1(C)CC[C@]2(C)CC[C@]3(C)C(=CC[C@@H]4[C@@]5(C)CC[C@H](O)C(C)(C)[C@@H]5CC[C@]43C)[C@@H]2C1 [β-Amyrin]	1183.423 RFU	–
CC1=C(/C=C/C(C)=C/C=C/C(C)=C/C=C/C=C(C)/C=C/C=C(\C)C=O)C(C)(C)CCC1 [β-Apo-8′-carotenal]	958.4764 RFU and 851.8107 RFU	–
C[C@H]1[C@H](C)CC[C@]2(C)CC[C@]3(C)C(=CC[C@@H]4[C@@]5(C)CC[C@@H](O)[C@](C)(C(=O)O)[C@@H]5CC[C@]43C)[C@H]12 [β-Boswellic acid]	813.2666 RFU	–
C=C1CC/C=C(\C)CC[C@@H]2[C@@H]1CC2(C)C [β-Caryophyllene]	881.1948 RFU	–
OC[C@H]1O[C@@H]2O[C@H]3[C@H](O)[C@@H](O)[C@@H](O[C@H]4[C@H](O)[C@@H](O)[C@@H](O[C@H]5[C@H](O)[C@@H](O)[C@@H](O[C@H]6[C@H](O)[C@@H](O)[C@@H](O[C@H]7[C@H](O)[C@@H](O)[C@@H](O[C@H]8[C@H](O)[C@@H](O)[C@@H](O[C@H]1[C@H](O)[C@H]2O)O[C@@H]8CO)O[C@@H]7CO)O[C@@H]6CO)O[C@@H]5CO)O[C@@H]4CO)O[C@@H]3CO [β-Cyclodextrin]	886.2621 RFU	–

Compound	Lipase (RFU)	also measured
C=C[C@]1(C)CC[C@@H](C(=C)C)C[C@H]1C(=C)C [β-Elemene]	1099.979 RFU	–
OC[C@H]1O[C@@H](OC[C@H]2O[C@@H](O)[C@H](O)[C@@H](O)[C@@H]2O)[C@H](O)[C@@H](O)[C@@H]1O [β-Gentiobiose]	997.1115 RFU	–
C=C1CCC2CC1C2(C)C (stereo not drawn) [β-Pinene]	851.1223 RFU	–
CC(C)=CCC/C(C)=C/CC/C(C)=C/CC[C@]1(C)CCc2c(C)c(O)cc(C)c2O1 [β-Tocotrienol]	668.6336 RFU	–
N#CC[C@H](N)C(=O)O [β-cyano-L-Alanine]	869.3786 RFU	–
N[C@@H](CCC(=O)N[C@@H](Cc1ccccc1)C(=O)O)C(=O)O [γ-Glu-Phe]	1077.051 RFU	–
CCC1CCC(=O)O1 (stereo not drawn) [γ-Hexalactone]	1020.576 RFU	–
CC(C)=CCC/C(C)=C/CC/C(C)=C/CC[C@]1(C)CCc2cc(O)c(C)c(C)c2O1 [γ-Tocotrienol]	703.9438 RFU and 665.753 RFU	–
CCCCCC1CCCC(=O)O1 (stereo not drawn) [δ-Decalactone]	1070.795 RFU	–
CC(C)=CCC/C(C)=C/CC/C(C)=C/CC[C@]1(C)CCc2cc(O)cc(C)c2O1 [δ-Tocotrienol]	1061.05 RFU	–
O=C1CCCCCCCCCCCCCCO1 [ω-Pentadecalactone]	959.0542 RFU	–
(+)-Catechin hydrate	928.2252 RFU	–
(+)-Secoisolariciresinol	1148.179 RFU	–
(−)-Epiafzelechin	915.141 RFU	–
(−)-Epigallocatechin	928.0708 RFU	–
(−)-Epigallocatechin Gallate	333.087 RFU	–
(−)-Fenchone	812.4614 RFU	–
(−)-Limonene	914.6466 RFU and 836.6929 RFU	–
(−)-Menthone	1263.606 RFU	–
Adenine (hemisulfate)	842.2125 RFU	–
Alliin	782.3552 RFU	–
Anacardic Acid	908.2535 RFU	–

Compound	Lipase (RFU)	also measured
Carbinoxamine maleate salt	807.8179 RFU	–
Catechin	945.7654 RFU	–
Chicoric acid	1008.153 RFU	–
Chondroitin (sulfate)	714.418 RFU	–
Chondroitin Sulfate	348.836 RFU	–
Chondroitin Sulfate C	308.9045 RFU	Hit in lipase inhibition screen (in words): significantly inhibited lipase activity
Curdlan	876.416 RFU	–
Cytidine-2′,3′-cyclic monophosphate	1332.358 RFU	–
D-(−)-Quinic acid	827.4863 RFU	–
D-Pantothenic acid (hemicalcium salt)	932.4036 RFU	–
Dextran	949.1554 RFU	–
Dextrin	915.3079 RFU	–
Disodium succinate	1168.659 RFU and 874.998 RFU	–
Eicosadienoic acid	795.3404 RFU	–
Elemicin	1009.834 RFU	–
Erythrosine B	836.3958 RFU	–
Estrone sulfate (potassium)	961.3154 RFU	–
Fucoidan from Macrocystis pyrifera	384.150 RFU	–
Gentiobiose	1106.66 RFU	–
Ginkgolic Acid	924.5734 RFU	–
Ginkgolide C	1234.872 RFU	–
Gluconate (Calcium)	840.1946 RFU	–

Compound	Lipase (RFU)	also measured
Glycogen	745.3227 RFU	–
Heparan Sulfate	1097.057 RFU	–
Hyaluronic acid	1101.829 RFU	–
Inulin	793.2721 RFU and 805.6516 RFU and 1006.043 RFU	Effect on lipase / lipolysis (in words): did not inhibit or slow human milk lipolysis; Synergistic effect in combination testing (in words): did not have synergistic effects
Isobergapten	1247.074 RFU	–
Isoliquiritin apioside	821.8958 RFU	–
Lactate	1249.686 RFU	–
Laminarin	336.7375 RFU and 594.197 RFU	Hit in lipase inhibition screen (in words): significantly inhibited lipase activity
Lignin	849.2641 RFU	–
Liquiritin apioside	875.5815 RFU	–
Lupeol acetate	966.2407 RFU	–
Maltohexaose	977.7036 RFU	–
Maltopentaose	907.876 RFU	–
Maltotetraose	824.2713 RFU	–
Maltotriose	917.8057 RFU and 1104.158 RFU	–
Mannan	1091.353 RFU	–
Medicarpin	622.3141 RFU	–
Notoginsenoside Fe	902.3283 RFU	–
O-Nornuciferine	773.2053 RFU	–
Phytol	1207.906 RFU and 715.6019 RFU	–
Pinoresinol	1253.681 RFU	–
Prosapogenin A	965.3667 RFU	–

Compound	Lipase (RFU)	also measured
Pseudoginsenoside F11	810.4484 RFU	–
Pyropheophorbide-a	1205.079 RFU	–
Rebaudioside A	1278.993 RFU	–
Rhamnose	816.2993 RFU and 1253.305 RFU	–
Riboflavin (phosphate sodium) [listing 1 of 2 here]	760.1592 RFU	–
Riboflavin (phosphate sodium) [listing 2 of 2 here]	1091.899 RFU	–
Schaftoside	900.214 RFU	–
Solanesol	985.7418 RFU	–
Sorafenib (Tosylate)	986.7553 RFU	–
Tara gum	841.631 RFU	–
Theaflavin 3,3′-digallate	933.3624 RFU	–
Theaflavin-3′-gallate	780.4384 RFU	–
Thiamine nitrate	1094.609 RFU and 1092.499 RFU	–
Triolein	728.6705 RFU	–
Ursolic acid acetate	811.3971 RFU	–
Xanthan gum	873.106 RFU	–
Xylan	1273.332 RFU	–
trans-Zeatin	1016.786 RFU	–
β Glucan - 1,3/1,6	942.984 RFU	–
β-Alanine	882.8696 RFU and 1205.931 RFU	–
β-D-Glucan from barley	995.347 RFU	–
γ-Oryzanol	1128.852 RFU	–
